In paper PMC7011955, “Synthesis and biological evaluation of certain hydrazonoindolin-2-one derivatives as new potent anti-proliferative agents” (Journal of Enzyme Inhibition and Medicinal Chemistry, 2018):
Where two headings read alike, the source gives them in different places.

Key:
[1] = test system: lung cancer A-549 cell line; assay: CellTiter-Glo Luminescent cell viability assay, anti-proliferative activity, A-549; format: cell-based, human; details: for inhibition at 30 µM: A549, 30 µM single concentration, quadruplicate, read-out: Growth inhibition % A-549; for IC50: read-out: IC50 A-549
Description: (§1) The anti-proliferative activity of the title compounds 3a-e, 5a-e, 7a-c, and 10a-l towards cancer cell lines, normal cell lines, and multidrug-resistant lung cancer NCI-H69AR cell line was determined using CellTiter-Glo™ Luminescent cell viability assay according to the previously published procedures[14]^,[15].
(§2) The cancer cell growth inhibitory activity of the synthesised 25 compounds 3a-e, 5a-e, 7a-c, and 10a-l was evaluated in vitro towards three human cancer cell lines, namely lung cancer A-549, human colon cancer HT-29, and breast cancer ZR-75 cell lines using CellTiter-Glo™ Luminescent cell viability assay. Sunitinib was included in this assay as a reference drug.
(§3) The prepared hydrazonoindolin-2-ones were first evaluated at preliminary anti-proliferative assay against the three cancer cell lines in quadruplicate at a single concentration of 30 µM. The data presented as percentage growth inhibition (GI%) caused by the test compounds (Table 1).

[2] = test system: breast cancer ZR-75 cell line; assay: CellTiter-Glo Luminescent cell viability assay, anti-proliferative activity, ZR-75; format: cell-based; details: Homo sapiens, ZR75; 30 µM single concentration, quadruplicate; read-out: Growth inhibition % ZR-75
Description: as §1, §2, §3

[3] = test system: colon cancer HT-29 cell line; assay: CellTiter-Glo Luminescent cell viability assay, anti-proliferative activity, HT-29; format: cell-based, human; details: 30 µM single concentration, quadruplicate; for inhibition at 30 µM: Homo sapiens, HT-29, read-out: Growth inhibition % HT-29
Description: as §1, §2, §3

[4] = test system: A-549, ZR-75 and HT-29 cell lines; assay: Average anti-proliferative activity over the three cancer cell lines; format: cell-based, human; details: average over A-549, ZR-75, HT-29; for Average growth inhibition % / inhibition at 30 µM: 30 µM; for inhibition at 30 µM / IC50: Homo sapiens; for inhibition at 30 µM: read-out: Average growth inhibition %
Description: as §1, §2, §3

[5] = test system: breast cancer ZR-75 cell line; assay: CellTiter-Glo Luminescent cell viability assay, anti-proliferative activity, ZR-75; format: cell-based, human
[6] = test system: colon cancer HT-29 cell line; assay: CellTiter-Glo Luminescent cell viability assay, anti-proliferative activity, HT-29; format: cell-based; details: Homo sapiens, mean ± SD of four separate experiments
[7] = Homo sapiens, A549, mean ± SD of four separate experiments
[8] = Homo sapiens, ZR75, mean ± SD of four separate experiments
[9] = mean ± SD of four separate experiments

| Compound | inhibition at 30 µM ([1]; Homo sapiens) | inhibition at 30 µM [2] | inhibition at 30 µM [3] | Average growth inhibition % [4] | inhibition at 30 µM [4] | IC50 [4] | melting point | IC50 [1, 7] | IC50 [5, 8] | IC50 [6] | IC50 ([5]; mean ± SD of four separate experiments, listed as 4d) | IC50 [1, 9] | IC50 [5, 9] | Growth inhibition % HT-29 [3] |
| --- | --- | --- | --- | --- | --- | --- | --- | --- | --- | --- | --- | --- | --- | --- |
| CC(=O)c1ccc(C=NN=C2C(=O)Nc3ccccc32)cc1 [Compound 3a, 3-((4-Acetylbenzylidene)hydrazono)indolin-2-one] | 12.7 ± 7.1% | 29.6 ± 24.4% | 53.6 ± 12.2% | 32.0% | < 35% | > 30 µM | 228 to 230 °C |  |  |  |  |  |  |  |
| COC(=O)c1ccc(C=NN=C2C(=O)Nc3ccccc32)cc1 [Compound 3b, Methyl 4-(((2-oxoindolin-3-ylidene)hydrazono)methyl)benzoate] | 68.1 ± 2.8% | 80.6 ± 7% | 92.3 ± 3.7% | 80.3% | > 80% | 14 µM | 225 to 227 °C | 11.2 ± 1.45 µM | 9.72 ± 2.52 µM | 21.1 ± 1.86 µM |  |  |  |  |
| COC(=O)c1ccc(C=NN=C2C(=O)Nc3ccc(Cl)cc32)cc1 [Compound 3c, Methyl 4-(((5-chloro-2-oxoindolin-3-ylidene)hydrazono)methyl)benzoate] | 93.5 ± 2.8% | 98.9 ± 2.1% | 95.9 ± 4.7% | 96.1% | > 80% | 6.25 µM | 266 to 268 °C | 6.07 ± 0.9 µM | 4.2 ± 0.57 µM | 8.49 ± 1.01 µM |  |  |  |  |
| CC(=O)c1ccc(C=NN=C2C(=O)Nc3ccc(Br)cc32)cc1 [Compound 3d, 3-((4-Acetylbenzylidene)hydrazono)-5-bromoindolin-2-one] | 17.3 ± 10.2% | 53.9 ± 14.4% | 56.8 ± 15.1% |  | 42.7% | > 28.7 µM | 270 to 272 °C | 26.1 ± 4.47 µM | > 30 µM | > 30 µM | > 30 µM |  |  |  |
| COC(=O)c1ccc(C=NN=C2C(=O)Nc3ccc(Br)cc32)cc1 [Compound 3e, Methyl 4-(((5-bromo-2-oxoindolin-3-ylidene)hydrazono)methyl)benzoate] | -4.2 ± 9.3% | 55.9 ± 18.2% | 26.3 ± 24.4% |  | 41.1% | > 27.8 µM | 283 to 285 °C | > 30 µM | 23.3 µM | > 30 µM |  | > 30 µM |  |  |
| Cc1csc(C=NN=C2C(=O)Nc3ccccc32)n1 [Compound 5a, 3-(((4-Methylthiazol-2-yl)methylene)hydrazono)indolin-2-one] | 2.4 ± 5% | 40.8 ± 25.7% | 37.9 ± 26.3% | 27.0% | < 35% |  | 238 to 240 °C |  |  |  |  |  |  |  |
| O=C1Nc2ccc(Cl)cc2C1=NN=Cc1nccs1 [Compound 5b, 5-Chloro-3-((thiazol-2-ylmethylene)hydrazono)indolin-2-one] | 93.6 ± 5.4% | 95 ± 8.2% | 96.2 ± 4.5% |  | 94.9% | 4.37 µM | 293 to 295 °C | 4.87 ± 0.49 µM | 2.09 ± 0.12 µM | 6.15 ± 0.51 µM |  |  |  |  |
| Cc1csc(C=NN=C2C(=O)Nc3ccc(Cl)cc32)n1 [Compound 5c, 5-Chloro-3-(((4-methylthiazol-2-yl)methylene)hydrazono)indolin-2-one] | 98.8 ± 1.5% | 98 ± 2.6% | 96.4 ± 4.8% |  | 97.7% | 2.53 µM | 290 to 292 °C | 2.15 ± 0.23 µM | 1.16 ± 0.39 µM | 4.29 ± 0.25 µM |  |  |  |  |
| O=C1Nc2ccc(Br)cc2C1=NN=Cc1nccs1 [Compound 5d, 5-Bromo-3-((thiazol-2-ylmethylene)hydrazono)indolin-2-one] | 94.8 ± 2.5% | 96.4 ± 1.5% | 98.5 ± 3.1% |  | 96.6% | 13.5 µM | 260 to 262 °C | 12.5 ± 1.73 µM | 12.7 ± 2.4 µM | 15.3 ± 1.93 µM |  |  |  |  |
| Cc1csc(C=NN=C2C(=O)Nc3ccc(Br)cc32)n1 [Compound 5e, 5-Bromo-3-(((4-methylthiazol-2-yl)methylene)hydrazono)indolin-2-one] | 95.3 ± 3.1% | 96.9 ± 2.4% | 99 ± 1.1% |  | 97.1% | 7.49 µM | 248 to 250 °C | 3.54 ± 0.42 µM | 2.93 ± 0.46 µM | 8.51 µM |  |  |  |  |
| O=C1Nc2ccccc2C1=NN=Cc1ccn[nH]1 [Compound 7a, 3-(((1H-pyrazol-5-yl)methylene)hydrazono)indolin-2-one] | 8.2 ± 15.1% | 60.1 ± 5.8% | 60.8 ± 13.1% |  | 43% | > 27.7 µM | 283 to 285 °C | 22.9 ± 3.51 µM | > 30 µM | > 30 µM |  |  | > 30 µM |  |
| O=C1Nc2ccc(Br)cc2C1=NN=Cc1ccn[nH]1 [Compound 7c, 3-(((1H-pyrazol-5-yl)methylene)hydrazono)-5-bromoindolin-2-one] | 32.8 ± 8.9% | 19.2 ± 22.8% | 28.8 ± 17.3% | 26.9% | < 35% |  | 264 to 266 °C |  |  |  |  |  |  |  |
| O=C1Nc2ccccc2C1=NNc1nc(-c2ccccc2)cs1 [Compound 10a, 3–(2-(4-Phenylthiazol-2-yl)hydrazono)indolin-2-one] | 70.7 ± 5.7% | 76.9 ± 7.1% | 91.2 ± 8.3% |  | 79.6% | 11.1 µM |  | 9.41 ± 1.29 µM | 4.35 µM | 19.4 ± 1.03 µM |  |  |  |  |
| Cc1ccc(-c2csc(NN=C3C(=O)Nc4ccccc43)n2)cc1 [Compound 10b, 3–(2-(4–(4-Tolyl)thiazol-2-yl)hydrazono)indolin-2-one] | 24.4 ± 14.1% | 62.1 ± 10.7% | 33.9 ± 21.2% |  | 40.1% | > 28.2 µM | 284 to 286 °C | > 30 µM | 24.6 µM | > 30 µM |  | > 30 µM |  |  |
| O=C1Nc2ccccc2C1=NNc1nc(-c2ccc(Cl)cc2)cs1 [Compound 10c, 3–(2-(4–(4-Chlorophenyl)thiazol-2-yl)hydrazono)indolin-2-one] | 31.4 ± 9.1% | 77.1 ± 10.9% | 85.4 ± 7% |  | 64.6% | > 17.4 µM | 295 to 297 °C | 17.2 ± 2.56 µM | 4.89 µM | > 30 µM |  |  |  |  |
| O=C1Nc2ccccc2C1=NNc1nc(-c2ccc(Br)cc2)cs1 [Compound 10d, 3–(2-(4–(4-Bromophenyl)thiazol-2-yl)hydrazono)indolin-2-one] | 12.3 ± 11.3% | 53.8 ± 19.2% | 20.6 ± 26.9% | 28.9% | < 35% |  |  |  |  |  |  |  |  |  |
| Cc1ccc(-c2csc(NN=C3C(=O)Nc4ccc(Cl)cc43)n2)cc1 [Compound 10f, 5-Chloro-3–(2-(4-(p-tolyl)thiazol-2-yl)hydrazono)indolin-2-one] | 27.4 ± 5.8% | 50.3 ± 33.6% | 54.4 ± 19.5% |  | 44% | > 25.4 µM | > 300 °C | 22.7 ± 3.71 µM | 23.4 µM | > 30 µM |  |  |  |  |
| O=C1Nc2ccc(Cl)cc2C1=NNc1nc(-c2ccc(Cl)cc2)cs1 [Compound 10g, 5-Chloro-3–(2-(4–(4-chlorophenyl)thiazol-2-yl)hydrazono)indolin-2-one] | 18.9 ± 3.2% | 52.8 ± 9.4% | 34.4 ± 23.6% |  | 35.4% | > 12.7 µM | > 300 °C | 6.07 ± 7.41 µM | 1.87 ± 0.26 µM | > 30 µM |  |  |  |  |
| O=C1Nc2ccc(Cl)cc2C1=NNc1nc(-c2ccc(Br)cc2)cs1 [Compound 10h, 3–(2-(4–(4-Bromophenyl)thiazol-2-yl)hydrazono)-5-chloroindolin-2-one] | -2.6 ± 7.5% | 9 ± 19.2% | -8.3 ± 43.8% |  |  |  | > 300 °C |  |  |  |  |  |  | stimulated the growth |
| O=C1Nc2ccc(Br)cc2C1=NNc1nc(-c2ccc(Br)cc2)cs1 [Compound 10l, 5-Bromo-3–(2-(4–(4-bromophenyl)thiazol-2-yl)hydrazono)indolin-2-one] | -20.1 ± 5.9% | 40.9 ± 16.7% | 27.8 ± 4.3% | 34.4% | < 35% |  | > 300 °C |  |  |  |  |  |  |  |
